From US20030163846A1, “Process for the genetic modification of a plant” (priority 2000, published 2003)

How the values were obtained:
SUT4 = test: stimulation/inhibition of uptake of 14C-saccharose by means of SUT4 (FIG. 5C); format: cell-based
Procedure: (§1) For the saccharose uptake tests, yeast was cultivated in a liquid minimal medium containing glucose, up to an OD623 of approximately 0.8. Cells were collected by means of centrifugation, washed in 25 mM sodium phosphate buffer (pH 5.5), and suspended in the same buffer at an OD623 of 20. The uptake tests were initiated by adding glucose ending at a final concentration of 10 mM to the yeast cells one minute before adding ^14C-saccharose. Following incubation at 30° C. while stirring, cells were collected by means of vacuum filtration on fiberglass filters (1-5 minutes), washed twice with 4 mL 10 mM saccharose (at the freezing point), and the radioactivity was determined using a liquid scintillation counter. […] A significant difference compared with the vector controls is apparent.
The stimulation of the uptake of ^14C-saccharose by means of SUT4 through glucose and the inhibition through an electron transport inhibitor (antimycin A and the protonophore CCCP is shown in FIG. 5C).

AtSUT2 = target: T1, AtSUT2 (Arabidopsis thaliana, UniProt O80605); test: substrate specificity and inhibition of saccharose uptake by AtSUT2 in yeast; format: cell-based; conditions: for competition with 14C-saccharose uptake: 1 mM saccharose, competitively with other sugars and sugar alcohols
T1 construct: expressed in transfected cells; host or cells: Saccharomyces cerevisiae SEY6210, expression vector pDR196
T1 sequence (O80605 1-594): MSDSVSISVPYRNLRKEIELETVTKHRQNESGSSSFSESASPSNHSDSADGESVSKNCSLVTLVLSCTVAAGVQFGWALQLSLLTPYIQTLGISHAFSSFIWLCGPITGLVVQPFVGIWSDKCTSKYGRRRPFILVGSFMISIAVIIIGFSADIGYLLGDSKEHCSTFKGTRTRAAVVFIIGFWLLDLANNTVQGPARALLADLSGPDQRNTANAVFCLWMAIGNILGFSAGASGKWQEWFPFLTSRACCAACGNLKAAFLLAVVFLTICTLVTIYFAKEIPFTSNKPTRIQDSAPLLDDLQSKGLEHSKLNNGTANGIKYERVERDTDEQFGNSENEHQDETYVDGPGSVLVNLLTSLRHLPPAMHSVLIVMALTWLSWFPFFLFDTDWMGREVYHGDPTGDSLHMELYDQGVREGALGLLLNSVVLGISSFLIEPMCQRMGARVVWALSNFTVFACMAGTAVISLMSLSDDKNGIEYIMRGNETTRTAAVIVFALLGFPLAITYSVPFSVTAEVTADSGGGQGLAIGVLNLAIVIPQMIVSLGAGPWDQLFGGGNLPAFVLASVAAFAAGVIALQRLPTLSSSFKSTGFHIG
Procedure: The saccharose uptake by AtSUT2 was pH-dependent, and the highest uptake rates were measured at a pH of 4.0. […] To determine the substrate specificity of AtSUT2, the saccharose uptake (1 mM saccharose) was measured competitively with other sugars and sugar alcohols.

leaf blades = conditions: high affinity/low capacity system, cited from earlier work
[1] = 14C-saccharose uptake tests in yeast expressing SUT4 (SUSY7/ura3); format: cell-based
Procedure: The yeast strain SUSY7/ura3 is a modified version of SUSY7 (Riesmeier et al., EMBO J. (1992) 11, 4705-4713), which contains a deletion of a portion of the URA3 gene and, as a result, permits selection for uracil auxotrophy. Media that contained the 1.7 g/L yeast nitrogen base without amino acids (Difco), 2% saccharose, 20 mg/L tryptophane, and 1.5% agarose, pH 5.0, were used to analyze yeast growth on a saccharose medium.
as §1
Data for the kinetic analysis were obtained for SUT4 from a nonlinear regression of the uptake measurements using the Michaelis-Menten equation. Km was represented as an average of eight determinations using three independent transformants±standard deviation. The KM value for saccharose that was determined was 11.6±0.6 mM (at a pH of 5.5) and 5.9±0.8 mM (at a pH of 4.0) for SUT4 from arabidopsis. For SUT4 from Solanum tuberosum the KM value was 6.0±1.2 mM (pH 4.0) (see FIG. 5B).

[2] = 14-C saccharose uptake tests in yeast strain SEY6210 expressing AtSUT2, StSUT1 or chimeric proteins; format: cell-based; conditions: for Km: AtSUT2 at a pH of 4
Procedure: It was shown that the saccharose uptake by yeast cells that express AtSUT2 was linear in the first five minutes of the test. During this period, 0.1 nmol saccharose accumulated in 10^8 cells. […] By contrast, the transport rate with StSUT1-expressing cells was 400 times greater than with AtSUT2-expressing cells. […] Using the Michaelis-Menten equation and a nonlinear regression analysis, a KM value of 11.7±1.2 mM
Table: KM values for saccharose of the saccharose transporters StSUT1 and AtSUT2 as well as of chimeric proteins in which the N-terminal regions or central cytoplasmic loops are exchanged between the two transporters. The values were determined as mean values±standard errors from at least three different measurements. Different letters indicate significant differences (p<0.05).

N#CC(C#N)=NNc1cccc(Cl)c1 [CCCP]
effect on uptake of 14C-saccharose by means of SUT4 (SUT4): inhibition | inhibition of saccharose transport by means of AtSUT2 (AtSUT2): inhibited

O=C[C@H](O)[C@@H](O)[C@@H](O)[C@H](O)CO [galactose]
competition with 14C-saccharose uptake (AtSUT2): only the saccharose and to a lesser extent maltose were able to compete significantly

OC[C@@H](O)[C@@H](O)[C@H](O)[C@H](O)CO[C@H]1O[C@H](CO)[C@@H](O)[C@H](O)[C@H]1O [glucomannitol]
competition with 14C-saccharose uptake (AtSUT2): only the saccharose and to a lesser extent maltose were able to compete significantly

OC[C@H](O)[C@@H](O)[C@H](O)[C@H](O)CO[C@H]1O[C@H](CO)[C@@H](O)[C@H](O)[C@H]1O [glucosorbitol]
competition with 14C-saccharose uptake (AtSUT2): only the saccharose and to a lesser extent maltose were able to compete significantly

OC[C@H]1O[C@H](OC[C@H]2OC(O)(CO)[C@@H](O)[C@@H]2O)[C@H](O)[C@@H](O)[C@@H]1O (some centres unmarked) [isomaltulose]
competition with 14C-saccharose uptake (AtSUT2): only the saccharose and to a lesser extent maltose were able to compete significantly

OC[C@H]1O[C@@H](O[C@H]2[C@H](O)[C@@H](O)C(O)O[C@@H]2CO)[C@H](O)[C@@H](O)[C@H]1O (some centres unmarked) [lactose]
competition with 14C-saccharose uptake (AtSUT2): only the saccharose and to a lesser extent maltose were able to compete significantly

OC[C@@H](O)[C@@H](O)[C@H](O)[C@H](O)CO [mannitol]
competition with 14C-saccharose uptake (AtSUT2): only the saccharose and to a lesser extent maltose were able to compete significantly

OC[C@H]1O[C@H](OC[C@H]2O[C@H](O[C@]3(CO)O[C@H](CO)[C@@H](O)[C@@H]3O)[C@H](O)[C@@H](O)[C@@H]2O)[C@H](O)[C@@H](O)[C@H]1O [raffinose]
competition with 14C-saccharose uptake (AtSUT2): only the saccharose and to a lesser extent maltose were able to compete significantly

OC[C@H]1O[C@@](CO)(O[C@H]2O[C@H](CO)[C@@H](O)[C@H](O)[C@H]2O)[C@@H](O)[C@@H]1O [saccharose]
Km (leaf blades; read-out: Km of saccharose intake): 2.7 mM | Vmax of saccharose intake (leaf blades): 0.7 nmol cm^−2 min^−1 | competition with 14C-saccharose uptake (AtSUT2): able to compete significantly

OC[C@@H](O)[C@@H](O)[C@H](O)[C@@H](O)CO [sorbitol]
competition with 14C-saccharose uptake (AtSUT2): only the saccharose and to a lesser extent maltose were able to compete significantly

antimycin A
effect on uptake of 14C-saccharose by means of SUT4 (SUT4): inhibition | inhibition of saccharose transport by means of AtSUT2 (AtSUT2): inhibited

B1: StSUT4: saccharose transporter SUT4 from Solanum tuberosum, amino acid sequence SEQ ID no. 28 (protein, listed as Solanum tuberosum)
chain: MPEIERHRTRHNRPAIREPVKPRVPLRLLFRVASVAGGIQFGWALQLSLLTPYVQELGIPHAWASIIWLCGPLSGLLVQPLVGHMSDKCTSRFGRRRPFIVAGAVSIMIAVLIIGFSADIGWLLGDRGEIKVRAIAAFVVGFWLLDVANNMTQGPCRALLADLTQKDHRRTRVANAYFSLFMAIGNILGFATGSYSGWFKIFPFTLNTACTINCANLKAAFIIDIIFIATTTCISISAANEQPLDPSRGSSHTREEIGESSHGQEEAFLWELFGIFKYFPGVVWVILLVTALTWIGWFPFLLFDTDWFGREIYGGEPNDGKNYSAGVRMGSLGLMLNSVLLGLTSLFMEKLCRKWGAGFTWGVSNVVMSLCFIAMLIITAVRSNIDIGQGLPPDGIVIAALVVFSILGIPLAITYSVPYALVSSRIDALGLGQGLSMGVLNLAIVFPQIVVSLGSGPWDELFGGGNSPAFVVAALSAFAGGLIAILAIPRTRVEKPKIFA
functional saccharose transporter (uptake of 14C-saccharose vs vector controls) ([1]; FIG. 5A): functional saccharose transporters | Km ([1]; pH 4.0, Michaelis-Menten nonlinear regression, average ± standard deviation): 6 ± 1.2 mM

B2: AtSUT2: SUT2 from Arabidopsis thaliana, SEQ ID no. 7; low-affinity saccharose transporter, sensor and/or regulator (protein, listed as Arabidopsis thaliana)
chain: MSDSVSISVPYRNLRKEIELETVTKHRQNESGSSSFSESASPSNHSDSADGESVSKNCSLVTLVLSCTVAAGVQFGWALQLSLLTPYIQTLGISHAFSSFIWLCGPITGLVVQPFVGIWSDKCTSKYGRRRPFILVGSFMISIAVIIIGFSADIGYLLGDSKEHCSTFKGTRTRAAVVFIIGFWLLDLANNTVQGPARALLADLSGPDQRNTANAVFCLWMAIGNILGFSAGASGKWQEWFPFLTSRACCAACGNLKAAFLLAVVFLTICTLVTIYFAKEIPFTSNKPTRIQDSAPLLDDLQSKGLEHSKLNNGTANGIKYERVERDTDEQFGNSENEHQDETYVDGPGSVLVNLLTSLRHLPPAMHSVLIVMALTWLSWFPFFLFDTDWMGREVYHGDPTGDSLHMELYDQGVREGALGLLLNSVVLGISSFLIEPMCQRMGARVVWALSNFTVFACMAGTAVISLMSLSDDKNGIEYIMRGNETTRTAAVIVFALLGFPLAITYSVPFSVTAEVTADSGGGQGLAIGVLNLAIVIPQMIVSLGAGPWDQLFGGGNLPAFVLASVAAFAAGVIALQRLPTLSSSFKSTGFHIG
pH of highest uptake rates [2]: 4.0 | saccharose accumulated in 10^8 cells ([2]; first five minutes of the test, in 10^8 cells): 0.1 nmol | uptake of saccharose compared with yeast cells expressing empty vector pDR196 ([2]; p<0.05): significantly higher | saccharose uptake at a pH of 6 ([2]; pH of 6): no further saccharose uptake was measured | Vmax ([2]; table): 1.5 ± 0.1 nmol saccharose min^−1 10^8 ce | Vmax ([2]; yeast SEY6210): 1.5 nmol·min^−1 10^8 cells^−1 | Km ([2]; yeast SEY6210): 11.7 mM

B3: StSUT1: high-affinity saccharose transporter SUT1 from Solanum tuberosum, SEQ ID no. 23 (protein, listed as Solanum tuberosum)
chain: MENGTKREGLGKLTVSSSLQVEQPLAPSKLWKIIVVASIAAGVQFGWALQLSLLTPYVQLLGIPHKFASFIWLCGPISGMIVQPVVGYYSDNCSSRFGRRRPFIAAGAALVMIAVFLIGFAADLGHASGDTLGKGFKPRAIAVFVVGFWILDVANNMLQGPCRALLADLSGGKSGRMRTANAFFSFFMAVGNILGYAAGSYSHLFKVFPFSKTKACDMYCANLKSCFFIAIFLLLSLTTIALTLVRENELPEKDEQEIDEKLAGAGKSKVPFFGEIFGALKELPRPMWILLLVTCLNWIAWFPFFLYDTDWMAKEVFGGQVGDARLYDLGVRAGAMGLLLQSVVLGFMSLGVEFLGKKIGGAKRLWGILNFVLAICLAMTILVTKMAEKSRQHDPAGTLMGPTPGVKIGALLLFAALGIPLAATFSIPFALASIFSSNRGSGQGLSLGVLNLAIVVPQMLVSLVGGPWDDLFGGGNLPGFVVGAVAAAASAVLALTMLPSPPADAKPAVAMGGFH
KM value for saccharose, fold lower than AtSUT2 [2]: 10 times | transport rate relative to AtSUT2-expressing cells [2]: 400 times | Vmax ([2]; table): 210.2 ± 5.7 nmol saccharose min^−1 10^8 ce | Vmax ([2]; yeast SEY6210): 210.2 nmol·min^−1 10^8 cells^−1 | Km ([2]; yeast SEY6210): 1.7 mM
